Data: patent US10479795B2 (Incyte Corporation, priority 2016, dated 2019)
Structures can show the parent of a compound that is named as a salt.

target: PI3Kγ (p110γ) Recombinant Human Protein (Homo sapiens (Human), UniProt P48736); assay: PI3K-γ Scintillation Proximity Assay; type: biochemical; conditions: read-out: PI3Kγ IC50
Protocol: [γ-^33P]ATP (10 mCi/mL) and Wheat Germ Agglutinin (WGA) YSi SPA Scintillation Beads was purchased from Perkin-Elmer (Waltham, Mass.). […] PI3Kγ (p110γ) Recombinant Human Protein was purchased from Life technology (Grand Island, N.Y.). ATP, MgCl2, DTT, EDTA, MOPS and CHAPS were purchased from Sigma-Aldrich (St. Louis, Mo.).
The kinase reaction was conducted in polystyrene 384-well Greiner Bio-one white plate from Thermo Fisher Scientific in a final volume of 25 μL. Inhibitors were first diluted serially in DMSO and added to the plate wells before the addition of other reaction components. The final concentration of DMSO in the assay was 2%. The PI3Kγ assay was carried out at room temperature in 20 mM MOPS, pH 6.7, 10 mM MgCl2, 5 mM DTT and CHAPS 0.03%. Reactions were initiated by the addition of ATP, the final reaction mixture consisted of 20 μM PIP2, 2 μM ATP, 0.5 μCi [γ-^33P] […] The final concentration of SPA beads is 1.0 mg/mL. After the plate sealing, plates were shaken overnight at room temperature and centrifuged at 1500 rpm for 10 min, the radioactivity of the product was determined by scintillation counting on Topcount (Perkin-Elmer). IC50 determination was performed by fitting the curve of percent of the solvent control activity versus the log of the inhibitor concentration using the GraphPad Prism 6.0 software.

PI3Kγ (p110γ) Recombinant Human Protein, sequence (P48736 whole entry): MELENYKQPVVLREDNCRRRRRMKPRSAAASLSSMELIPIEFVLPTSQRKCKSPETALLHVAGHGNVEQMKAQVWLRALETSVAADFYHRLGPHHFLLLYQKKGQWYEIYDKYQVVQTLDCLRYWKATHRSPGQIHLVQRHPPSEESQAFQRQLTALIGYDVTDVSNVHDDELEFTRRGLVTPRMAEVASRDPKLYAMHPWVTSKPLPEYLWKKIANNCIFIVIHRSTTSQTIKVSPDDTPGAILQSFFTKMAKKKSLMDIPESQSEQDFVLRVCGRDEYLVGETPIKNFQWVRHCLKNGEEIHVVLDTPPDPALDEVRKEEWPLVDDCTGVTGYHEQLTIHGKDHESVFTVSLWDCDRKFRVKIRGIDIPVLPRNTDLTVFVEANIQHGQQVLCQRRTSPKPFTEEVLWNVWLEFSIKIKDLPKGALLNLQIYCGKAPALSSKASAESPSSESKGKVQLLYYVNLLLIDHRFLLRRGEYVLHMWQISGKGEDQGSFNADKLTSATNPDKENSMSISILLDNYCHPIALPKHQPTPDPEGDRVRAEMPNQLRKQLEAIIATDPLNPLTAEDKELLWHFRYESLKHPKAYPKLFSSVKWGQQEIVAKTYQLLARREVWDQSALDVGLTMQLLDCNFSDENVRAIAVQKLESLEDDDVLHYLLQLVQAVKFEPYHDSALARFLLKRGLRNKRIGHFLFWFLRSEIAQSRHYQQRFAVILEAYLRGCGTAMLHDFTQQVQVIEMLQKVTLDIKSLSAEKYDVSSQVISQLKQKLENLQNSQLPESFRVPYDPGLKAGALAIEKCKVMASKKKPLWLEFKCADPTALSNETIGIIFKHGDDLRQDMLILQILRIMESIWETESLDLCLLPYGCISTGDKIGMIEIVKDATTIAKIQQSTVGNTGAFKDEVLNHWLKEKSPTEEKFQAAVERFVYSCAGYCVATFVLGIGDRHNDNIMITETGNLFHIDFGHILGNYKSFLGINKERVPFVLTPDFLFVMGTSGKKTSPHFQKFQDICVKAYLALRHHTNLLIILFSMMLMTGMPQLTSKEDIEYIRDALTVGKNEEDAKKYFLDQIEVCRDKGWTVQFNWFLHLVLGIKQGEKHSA

`Cc1ccncc1NS(=O)(=O)c1ccc(C)c(-c2cnc3c(N)ncnn23)c1` [Example 245, 3-(4-aminoimidazo[2,1-f][1,2,4]triazin-7-yl)-4-methyl-N-(4-methylpyridin-3-yl)benzenesulfonamide] and `COc1ccc(NS(=O)(=O)c2ccc(C)c(-c3cnc4c(N)ncnn34)c2)c(C)n1` [Example 246, 3-(4-aminoimidazo[2,1-f][1,2,4]triazin-7-yl)-N-(6-methoxy-2-methylpyridin-3-yl)-4-methylbenzenesulfonamide] cannot be ordered by IC50: less than 100 nM for the first, less than 100 nM for the second.

`Cc1ccc(S(=O)(=O)N(C)c2ccncc2)cc1-c1cnc2c(N)ncnn12` [Example 247, 3-(4-aminoimidazo[2,1-f][1,2,4]triazin-7-yl)-N,4-dimethyl-N-(pyridin-4-yl)benzenesulfonamide] and `Cc1ccc(S(=O)(=O)Nc2ccnc(C#N)c2)cc1-c1cnc2c(N)ncnn12` [Example 248, 3-(4-aminoimidazo[2,1-f][1,2,4]triazin-7-yl)-N-(2-cyanopyridin-4-yl)-4-methylbenzenesulfonamide] cannot be ordered by IC50: less than 100 nM for the first, less than 100 nM for the second.

`Cc1ccc(S(=O)(=O)NCc2ccnn2C)cc1-c1cnc2c(N)nc(C(F)(F)F)nn12` [Example 357, 3-(4-amino-2-(trifluoromethyl)imidazo[2,1-f][1,2,4]triazin-7-yl)-4-methyl-N-((1-methyl-1H-pyrazol-5-yl)methyl)benzenesulfonamide] and `Cc1ccc(S(=O)(=O)NCc2cnccn2)cc1-c1cnc2c(N)nc(C(F)(F)F)nn12` [Example 358, 3-(4-amino-2-(trifluoromethyl)imidazo[2,1-f][1,2,4]triazin-7-yl)-4-methyl-N-(pyrazin-2-ylmethyl)benzenesulfonamide] cannot be ordered by IC50: less than 100 nM for the first, less than 100 nM for the second.

`Cc1ccc(S(=O)(=O)NC23CCCC(C#N)(C2)C3)cc1-c1cnc2c(N)ncnn12` [Example 520, 3-(4-Aminoimidazo[2,1-f][1,2,4]triazin-7-yl)-N-(5-cyanobicyclo[3.1.1]heptan-1-yl)-4-methylbenzenesulfonamide trifluoroacetate] and `Cc1ccc(S(=O)(=O)NC23CCCC(C(C)O)(C2)C3)cc1-c1cnc2c(N)ncnn12` (stereo not shown) [Example 521, 3-(4-aminoimidazo[2,1-f][1,2,4]triazin-7-yl)-N-(5-(1-hydroxyethyl)bicyclo[3.1. 1]heptan-1-yl)-4-methylbenzenesulfonamide trifluoroacetate] cannot be ordered by IC50: less than 100 nM for the first, less than 100 nM for the second.

`Cc1ccc(S(=O)(=O)NC23CCCC(C(C)N4CC(C#N)C4)(C2)C3)cc1-c1cnc2c(N)ncnn12` (stereo not shown) [Example 522, 3-(4-Aminoimidazo[2,1-f][1,2,4]triazin-7-yl)-N-(5-(1-(3-cyanoazetidin-1-yl)ethyl)bicyclo[3.1.1]heptan-1-yl)-4-methylbenzenesulfonamide trifluoroacetate] and `Cc1ccc(S(=O)(=O)NC23CC(CN(C)C2)C3)cc1-c1cnc2c(N)ncnn12` [Example 523, 3-(4-Aminoimidazo[2,1-f][1,2,4]triazin-7-yl)-4-methyl-N-(3-methyl-3-azabicyclo[3.1.1]heptan-1-yl)benzenesulfonamide trifluoroacetate] cannot be ordered by IC50: less than 100 nM for the first, less than 100 nM for the second.

`Cc1ccc(S(=O)(=O)NC23CC(CN(C(C)C)C2)C3)cc1-c1cnc2c(N)nc(C(F)(F)F)nn12` [Example 524, 3-(4-Amino-2-(trifluoromethyl)imidazo[2,1-f][1,2,4]triazin-7-yl)-N-(3-isopropyl-3-azabicyclo[3.1.1]heptan-1-yl)-4-methylbenzenesulfonamide trifluoroacetate] and `Cc1ccc(S(=O)(=O)NC2(C)CCCN(C(C)C)C2)cc1-c1cnc2c(N)nc(C(F)(F)F)nn12` (stereo not shown) [Example 527, 3-(4-Amino-2-(trifluoromethyl)imidazo[2,1-f][1,2,4]triazin-7-yl)-N-(1-isopropyl-3-methylpiperidin-3-yl)-4-methylbenzenesulfonamide trifluoroacetate] cannot be ordered by IC50: less than 100 nM for the first, less than 100 nM for the second.

First: Cc1ccc(S(=O)(=O)NC23CC(CN(C4CCC4)C2)C3)cc1-c1cnc2c(N)ncnn12 [Example 525, 3-(4-Aminoimidazo[2,1-f][1,2,4]triazin-7-yl)-N-(3-cyclobutyl-3-azabicyclo[3.1.1]heptan-1-yl)-4-methylbenzenesulfonamide trifluoroacetate]
Second: Cc1ccc(S(=O)(=O)NC23C4C5C2C2C3C4C52C#N)cc1-c1cnc2c(N)ncnn12 (stereo not shown) [Example 534, 3-(4-Aminoimidazo[2,1-f][1,2,4]triazin-7-yl)-N-(4-cyanocuban-1-yl)-4-methylbenzenesulfonamide trifluoroacetate]
The IC50 of the first is higher: 100 to 500 nM for the first, less than 100 nM for the second. The second is the more potent here.

`Cc1ccc(S(=O)(=O)NC2(C)CCCN(C)C2)cc1-c1cnc2c(N)nc(C(F)(F)F)nn12` (stereo not shown) [Example 526, 3-(4-Amino-2-(trifluoromethyl)imidazo[2,1-f][1,2,4]triazin-7-yl)-N-(1,3-dimethylpiperidin-3-yl)-4-methylbenzenesulfonamide trifluoroacetate] and `Cc1ccc(S(=O)(=O)NC2(C)CCN(C)C2)cc1-c1cnc2c(N)nc(C(F)(F)F)nn12` (stereo not shown) [Example 533, 3-(4-Amino-2-(trifluoromethyl)imidazo[2,1-f][1,2,4]triazin-7-yl)-N-(1,3-dimethylpyrrolidin-3-yl)-4-methylbenzenesulfonamide trifluoroacetate] cannot be ordered by IC50: less than 100 nM for the first, less than 100 nM for the second.

`Cc1ccc(S(=O)(=O)NC2(C)CCN(C)CC2)cc1-c1cnc2c(N)nc(C(F)(F)F)nn12` [Example 528, 3-(4-Amino-2-(trifluoromethyl)imidazo[2,1-f][1,2,4]triazin-7-yl)-N-(1,4-dimethylpiperidin-4-yl)-4-methylbenzenesulfonamide trifluoroacetate] and `Cc1ccc(S(=O)(=O)NC2(C)CN(C)C2)cc1-c1cnc2c(N)nc(C(F)(F)F)nn12` [Example 532, 3-(4-Amino-2-(trifluoromethyl)imidazo[2,1-f][1,2,4]triazin-7-yl)-N-(1,3-dimethylazetidin-3-yl)-4-methylbenzenesulfonamide] cannot be ordered by IC50: less than 100 nM for the first, less than 100 nM for the second.

`Cc1ccc(S(=O)(=O)NC2(C)CCN(C3CC(C#N)C3)CC2)cc1-c1cnc2c(N)nc(C(F)(F)F)nn12` (stereo not shown) [Example 529, 3-(4-Amino-2-(trifluoromethyl)imidazo[2,1-f][1,2,4]triazin-7-yl)-N-(1-(3-cyanocyclobutyl)-4-methylpiperidin-4-yl)-4-methylbenzenesulfonamide trifluoroacetate] and `Cc1ccc(S(=O)(=O)NC2(C)CCN(C3CCOC3)CC2)cc1-c1cnc2c(N)nc(C(F)(F)F)nn12` (stereo not shown) [Example 530, 3-(4-Amino-2-(trifluoromethyl)imidazo[2,1-f][1,2,4]triazin-7-yl)-4-methyl-N-(4-methyl-1-(tetrahydrofuran-3-yl)piperidin-4-yl)benzenesulfonamide trifluoroacetate] fall in the same range of IC50: 100 to 500 nM for the first, 100 to 500 nM for the second.

`Cc1ccc(S(=O)(=O)NC2(C)CNC2)cc1-c1cnc2c(N)nc(C(F)(F)F)nn12` [Example 531, 3-(4-Amino-2-(trifluoromethyl)imidazo[2,1-f][1,2,4]triazin-7-yl)-4-methyl-N-(3-methylazetidin-3-yl)benzenesulfonamide trifluoroacetate] and `Cc1ccc(S(=O)(=O)NC23C4C5C2C2C3C4C52C(C)(C)O)cc1-c1cnc2c(N)ncnn12` (stereo not shown) [Example 535, 3-(4-Aminoimidazo[2,1-f][1,2,4]triazin-7-yl)-N-(4-(2-hydroxypropan-2-yl)cuban-1-yl)-4-methylbenzenesulfonamide trifluoroacetate] cannot be ordered by IC50: less than 100 nM for the first, less than 100 nM for the second.
